Positions of bridges follow the written chain, without caps; N, C: chain ends. Non-standard residues stand in square brackets, D forms with d. Residues, ends and D or L forms follow the SMILES beside them. Phg = N[C@H](C(=O)O)c1ccccc1
Legend:
Test in all cases: cell-based
[1] = biological target: hNav1.7 (Homo sapiens, UniProt Q15858); type: cell-based; conditions: Table 26; IonWorks Quattro, use; […]; read-out: IWQ Use Nav1.7
[2] = biological target: hNav1.3 (Homo sapiens, UniProt Q9NY46); conditions: Table 26; IonWorks Quattro, use; […]; read-out: IWQ Use Nav1.3
[3] = biological target: hNav1.5 (Homo sapiens, UniProt Q14524); conditions: Table 26; IonWorks Quattro, use; […]; read-out: IWQ Use Nav1.5
Sequence of hNav1.5 (Q14524 whole entry, looked up): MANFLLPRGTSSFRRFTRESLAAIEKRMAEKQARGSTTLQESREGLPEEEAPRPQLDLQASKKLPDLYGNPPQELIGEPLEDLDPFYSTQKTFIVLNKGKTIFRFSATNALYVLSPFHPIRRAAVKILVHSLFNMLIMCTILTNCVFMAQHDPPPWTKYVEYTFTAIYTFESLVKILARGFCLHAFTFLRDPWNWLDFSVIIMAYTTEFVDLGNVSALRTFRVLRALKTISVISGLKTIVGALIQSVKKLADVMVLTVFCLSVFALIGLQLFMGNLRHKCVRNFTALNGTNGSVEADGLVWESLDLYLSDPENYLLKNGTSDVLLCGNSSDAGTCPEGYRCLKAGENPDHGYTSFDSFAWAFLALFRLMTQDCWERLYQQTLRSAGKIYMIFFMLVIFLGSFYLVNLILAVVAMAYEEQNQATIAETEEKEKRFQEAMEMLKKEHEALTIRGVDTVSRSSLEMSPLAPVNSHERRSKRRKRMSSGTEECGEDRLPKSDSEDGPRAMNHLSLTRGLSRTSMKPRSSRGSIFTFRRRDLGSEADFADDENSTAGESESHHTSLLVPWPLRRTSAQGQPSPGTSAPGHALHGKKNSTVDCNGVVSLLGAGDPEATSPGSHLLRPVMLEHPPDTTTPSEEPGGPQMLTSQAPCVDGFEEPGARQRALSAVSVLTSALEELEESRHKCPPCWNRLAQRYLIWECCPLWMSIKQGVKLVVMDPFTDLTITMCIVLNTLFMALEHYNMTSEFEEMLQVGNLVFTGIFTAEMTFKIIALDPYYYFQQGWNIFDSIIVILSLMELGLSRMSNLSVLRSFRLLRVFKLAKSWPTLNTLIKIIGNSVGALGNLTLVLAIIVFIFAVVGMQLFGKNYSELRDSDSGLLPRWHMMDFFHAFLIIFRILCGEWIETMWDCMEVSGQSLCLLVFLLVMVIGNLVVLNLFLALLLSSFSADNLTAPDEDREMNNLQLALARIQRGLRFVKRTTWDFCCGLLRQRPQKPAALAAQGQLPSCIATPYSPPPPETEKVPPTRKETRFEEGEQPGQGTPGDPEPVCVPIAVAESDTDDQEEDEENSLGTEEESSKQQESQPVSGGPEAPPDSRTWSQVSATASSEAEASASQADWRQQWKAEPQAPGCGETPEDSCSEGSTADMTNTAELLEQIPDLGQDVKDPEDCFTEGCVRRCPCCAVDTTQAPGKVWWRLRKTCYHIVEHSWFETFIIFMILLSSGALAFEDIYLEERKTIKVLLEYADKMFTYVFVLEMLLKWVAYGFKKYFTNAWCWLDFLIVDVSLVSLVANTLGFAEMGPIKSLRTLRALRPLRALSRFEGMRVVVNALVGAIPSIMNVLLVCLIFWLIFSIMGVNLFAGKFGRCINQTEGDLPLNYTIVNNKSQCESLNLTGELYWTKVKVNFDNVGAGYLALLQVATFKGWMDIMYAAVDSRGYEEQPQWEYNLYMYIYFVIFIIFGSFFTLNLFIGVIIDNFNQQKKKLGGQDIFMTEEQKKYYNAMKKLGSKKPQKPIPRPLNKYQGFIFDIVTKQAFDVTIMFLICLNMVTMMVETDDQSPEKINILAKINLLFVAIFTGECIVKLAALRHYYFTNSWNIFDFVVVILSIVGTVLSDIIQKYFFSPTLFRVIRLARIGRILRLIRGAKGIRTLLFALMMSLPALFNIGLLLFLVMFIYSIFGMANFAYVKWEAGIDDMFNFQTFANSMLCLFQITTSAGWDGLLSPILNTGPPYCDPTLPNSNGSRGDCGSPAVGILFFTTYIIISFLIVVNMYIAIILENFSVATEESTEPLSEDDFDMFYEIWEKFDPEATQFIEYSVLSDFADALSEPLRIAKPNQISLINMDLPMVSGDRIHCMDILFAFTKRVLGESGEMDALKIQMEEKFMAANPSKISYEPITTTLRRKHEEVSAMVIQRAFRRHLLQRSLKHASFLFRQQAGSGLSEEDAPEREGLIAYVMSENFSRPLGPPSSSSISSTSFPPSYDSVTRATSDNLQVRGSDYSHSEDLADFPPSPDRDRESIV

Sequence of hNav1.7 (Q15858 whole entry, looked up): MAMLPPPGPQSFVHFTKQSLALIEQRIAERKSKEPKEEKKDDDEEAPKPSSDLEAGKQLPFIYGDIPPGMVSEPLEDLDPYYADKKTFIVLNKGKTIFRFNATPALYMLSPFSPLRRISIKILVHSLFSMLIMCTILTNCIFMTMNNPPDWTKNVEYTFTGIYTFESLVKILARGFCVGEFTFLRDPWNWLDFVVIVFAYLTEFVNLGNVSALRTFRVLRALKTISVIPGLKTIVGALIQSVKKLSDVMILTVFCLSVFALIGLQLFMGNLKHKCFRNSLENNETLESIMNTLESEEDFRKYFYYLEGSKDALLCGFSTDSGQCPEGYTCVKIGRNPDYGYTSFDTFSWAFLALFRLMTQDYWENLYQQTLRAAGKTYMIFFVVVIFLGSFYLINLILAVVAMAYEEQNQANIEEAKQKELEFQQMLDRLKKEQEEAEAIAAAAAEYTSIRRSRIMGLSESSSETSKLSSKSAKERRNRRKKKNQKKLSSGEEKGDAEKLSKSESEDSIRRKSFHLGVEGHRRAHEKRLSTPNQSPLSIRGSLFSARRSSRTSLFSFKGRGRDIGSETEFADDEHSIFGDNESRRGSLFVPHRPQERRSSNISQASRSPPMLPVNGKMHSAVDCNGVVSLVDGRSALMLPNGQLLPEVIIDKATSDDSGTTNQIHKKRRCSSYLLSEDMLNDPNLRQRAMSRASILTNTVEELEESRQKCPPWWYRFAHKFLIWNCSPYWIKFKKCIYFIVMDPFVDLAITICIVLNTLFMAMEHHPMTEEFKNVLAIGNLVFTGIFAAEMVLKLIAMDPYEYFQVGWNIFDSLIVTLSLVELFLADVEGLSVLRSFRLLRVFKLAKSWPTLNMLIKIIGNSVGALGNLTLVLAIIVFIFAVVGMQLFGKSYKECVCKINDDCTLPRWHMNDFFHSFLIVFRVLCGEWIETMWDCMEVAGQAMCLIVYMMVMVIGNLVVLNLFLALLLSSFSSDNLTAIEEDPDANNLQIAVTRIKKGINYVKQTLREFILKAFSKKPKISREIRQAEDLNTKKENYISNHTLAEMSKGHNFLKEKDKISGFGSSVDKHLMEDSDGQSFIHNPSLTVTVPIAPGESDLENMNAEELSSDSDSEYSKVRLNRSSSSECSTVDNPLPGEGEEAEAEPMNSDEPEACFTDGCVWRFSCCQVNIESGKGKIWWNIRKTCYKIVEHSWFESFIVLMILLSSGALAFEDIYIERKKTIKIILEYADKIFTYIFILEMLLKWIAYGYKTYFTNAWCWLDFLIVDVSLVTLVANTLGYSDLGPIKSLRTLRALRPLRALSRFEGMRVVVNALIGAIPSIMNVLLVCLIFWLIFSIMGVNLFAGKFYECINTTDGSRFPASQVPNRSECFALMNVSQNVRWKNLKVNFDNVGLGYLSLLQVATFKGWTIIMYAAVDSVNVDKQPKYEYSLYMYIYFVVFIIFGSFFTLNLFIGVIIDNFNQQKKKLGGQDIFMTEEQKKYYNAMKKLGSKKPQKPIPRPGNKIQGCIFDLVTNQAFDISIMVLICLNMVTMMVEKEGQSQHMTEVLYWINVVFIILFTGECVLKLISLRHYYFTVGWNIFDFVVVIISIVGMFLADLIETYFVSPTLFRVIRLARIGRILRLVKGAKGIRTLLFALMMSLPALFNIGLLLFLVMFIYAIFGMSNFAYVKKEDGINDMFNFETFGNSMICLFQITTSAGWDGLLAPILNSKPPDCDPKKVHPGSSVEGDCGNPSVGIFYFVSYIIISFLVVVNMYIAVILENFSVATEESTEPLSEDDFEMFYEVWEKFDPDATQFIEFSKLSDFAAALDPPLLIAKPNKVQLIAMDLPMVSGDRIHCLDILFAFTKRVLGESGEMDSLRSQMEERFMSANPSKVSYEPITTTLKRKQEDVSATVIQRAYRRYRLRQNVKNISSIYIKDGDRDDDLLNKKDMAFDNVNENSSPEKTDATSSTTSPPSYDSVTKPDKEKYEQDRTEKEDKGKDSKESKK

Structure (SMILES)	IC50 [1] [nM]	IC50 [2] [nM]	IC50 [3] [nM]
CC[C@H](C)[C@@H]1NC(=O)[C@@H]2CSSC[C@@H]3NC(=O)[C@H](C(C)C)NC(=O)[C@H](CC(C)C)NC(=O)[C@H](CC(N)=O)NC(=O)[C@@H]4CCCN4C(=O)[C@H](CCCNC(=N)N)NC(=O)[C@H](CSSC[C@H](NC(=O)[C@@H](N)CC(=O)O)C(=O)N[C@@H](CC(C)C)C(=O)NCC(=O)N[C@@H](Cc4ccccc4)C(=O)N[C@@H](CCSC)C(=O)N[C@@H](CCCNC(=N)N)C(=O)N[C@@H](CCCCN)C(=O)N2)NC(=O)[C@H](CSSC[C@@H](C(=O)N[C@@H](CCCCN)C(=O)N[C@@H](Cc2ccc(O)cc2)C(=O)N[C@@H](Cc2c[nH]cn2)C(=O)N[C@@H](Cc2ccccc2)C(N)=O)NC(=O)[C@H](Cc2c[nH]c4ccccc24)NC(=O)[C@H](CCCCN)NC(=O)[C@H](Cc2c[nH]cn2)NC(=O)[C@H]([C@@H](C)O)NC(=O)[C@H](CCCNC(=N)N)NC(=O)[C@H](CO)NC3=O)NC(=O)[C@H](CCCCN)NC(=O)[C@H](CC(=O)O)NC(=O)[C@H](CC(N)=O)NC(=O)[C@H](CC(=O)O)NC(=O)[C@@H]2CCCN2C1=O [compound 392] (H-DCLGFMRKCIPDNDKCCRPNLVCSRTHKWCKYHF-NH2; disulfide 2-17, 9-23, 16-30)	20	10	8160
CC[C@H](C)[C@@H]1NC(=O)[C@@H]2CSSC[C@@H]3NC(=O)[C@H](C(C)C)NC(=O)[C@H](CC(C)C)NC(=O)[C@H](CC(N)=O)NC(=O)[C@@H]4CCCN4C(=O)[C@H](CCCNC(=N)N)NC(=O)[C@H](CSSC[C@H](NC(=O)[C@@H](N)CC(=O)O)C(=O)N[C@@H](CC(C)C)C(=O)NCC(=O)N[C@@H](Cc4ccccc4)C(=O)N[C@@H](CCSC)C(=O)N[C@@H](CCCNC(=N)N)C(=O)N[C@@H](CCCCN)C(=O)N2)NC(=O)[C@H](CSSC[C@@H](C(=O)N[C@@H](CCCCN)C(=O)N[C@@H](Cc2ccc(O)cc2)C(=O)N[C@H](C(=O)N[C@@H](Cc2ccccc2)C(N)=O)c2ccccc2)NC(=O)[C@H](Cc2c[nH]c4ccccc24)NC(=O)[C@H](CCCCN)NC(=O)[C@H](Cc2c[nH]cn2)NC(=O)[C@H]([C@@H](C)O)NC(=O)[C@H](CCCNC(=N)N)NC(=O)[C@H](CO)NC3=O)NC(=O)[C@H](CCCCN)NC(=O)[C@H](CC(=O)O)NC(=O)[C@H](CC(N)=O)NC(=O)[C@H](CC(=O)O)NC(=O)[C@@H]2CCCN2C1=O [compound 393] (H-DCLGFMRKCIPDNDKCCRPNLVCSRTHKWCKY[Phg]F-NH2; disulfide 2-17, 9-23, 16-30)	20	40	7630
CC[C@H](C)[C@@H]1NC(=O)[C@@H]2CSSC[C@@H]3NC(=O)[C@H](C(C)C)NC(=O)[C@H](CC(C)C)NC(=O)[C@H](CC(N)=O)NC(=O)[C@@H]4CCCN4C(=O)[C@H](CCCNC(=N)N)NC(=O)[C@H](CSSC[C@H](NC(=O)[C@@H](N)CC(=O)O)C(=O)N[C@@H](CC(C)C)C(=O)NCC(=O)N[C@@H](Cc4ccccc4)C(=O)N[C@@H](CCSC)C(=O)N[C@@H](CCCNC(=N)N)C(=O)N[C@@H](CCCCN)C(=O)N2)NC(=O)[C@H](CSSC[C@@H](C(=O)N[C@@H](CCCCN)C(=O)N[C@@H](Cc2ccc(O)cc2)C(=O)N[C@@H](CC(N)=O)C(=O)N[C@@H](Cc2ccccc2)C(N)=O)NC(=O)[C@H](Cc2c[nH]c4ccccc24)NC(=O)[C@H](CCCCN)NC(=O)[C@H](Cc2c[nH]cn2)NC(=O)[C@H]([C@@H](C)O)NC(=O)[C@H](CCCNC(=N)N)NC(=O)[C@H](CO)NC3=O)NC(=O)[C@H](CCCCN)NC(=O)[C@H](CC(=O)O)NC(=O)[C@H](CC(N)=O)NC(=O)[C@H](CC(=O)O)NC(=O)[C@@H]2CCCN2C1=O [compound 394] (H-DCLGFMRKCIPDNDKCCRPNLVCSRTHKWCKYNF-NH2; disulfide 2-17, 9-23, 16-30)	360	70	7940
CC[C@H](C)[C@@H]1NC(=O)[C@@H]2CSSC[C@@H]3NC(=O)[C@H](C(C)C)NC(=O)[C@H](CC(C)C)NC(=O)[C@H](CC(N)=O)NC(=O)[C@@H]4CCCN4C(=O)[C@H](CCCNC(=N)N)NC(=O)[C@H](CSSC[C@H](NC(=O)[C@@H](N)CC(=O)O)C(=O)N[C@@H](CC(C)C)C(=O)NCC(=O)N[C@@H](Cc4ccccc4)C(=O)N[C@@H](CCSC)C(=O)N[C@@H](CCCNC(=N)N)C(=O)N[C@@H](CCCCN)C(=O)N2)NC(=O)[C@H](CSSC[C@@H](C(=O)N[C@@H](CCCCN)C(=O)N[C@@H](Cc2ccc(O)cc2)C(=O)N[C@@H](CC(=O)O)C(=O)N[C@@H](Cc2ccccc2)C(N)=O)NC(=O)[C@H](Cc2c[nH]c4ccccc24)NC(=O)[C@H](CCCCN)NC(=O)[C@H](Cc2c[nH]cn2)NC(=O)[C@H]([C@@H](C)O)NC(=O)[C@H](CCCNC(=N)N)NC(=O)[C@H](CO)NC3=O)NC(=O)[C@H](CCCCN)NC(=O)[C@H](CC(=O)O)NC(=O)[C@H](CC(N)=O)NC(=O)[C@H](CC(=O)O)NC(=O)[C@@H]2CCCN2C1=O [compound 395] (H-DCLGFMRKCIPDNDKCCRPNLVCSRTHKWCKYDF-NH2; disulfide 2-17, 9-23, 16-30)	770	170	8790
CC[C@H](C)[C@@H]1NC(=O)[C@@H]2CSSC[C@@H]3NC(=O)[C@H](C(C)C)NC(=O)[C@H](CC(C)C)NC(=O)[C@H](CC(N)=O)NC(=O)[C@@H]4CCCN4C(=O)[C@H](CCCNC(=N)N)NC(=O)[C@H](CSSC[C@H](NC(=O)[C@@H](N)CC(=O)O)C(=O)N[C@@H](CC(C)C)C(=O)NCC(=O)N[C@@H](Cc4ccccc4)C(=O)N[C@@H](CCSC)C(=O)N[C@@H](CCCNC(=N)N)C(=O)N[C@@H](CCCCN)C(=O)N2)NC(=O)[C@H](CSSC[C@@H](C(=O)N[C@@H](CCCCN)C(=O)N[C@@H](Cc2ccc(O)cc2)C(=O)N[C@H](C(=O)N[C@@H](Cc2ccccc2)C(N)=O)[C@@H](C)O)NC(=O)[C@H](Cc2c[nH]c4ccccc24)NC(=O)[C@H](CCCCN)NC(=O)[C@H](Cc2c[nH]cn2)NC(=O)[C@H]([C@@H](C)O)NC(=O)[C@H](CCCNC(=N)N)NC(=O)[C@H](CO)NC3=O)NC(=O)[C@H](CCCCN)NC(=O)[C@H](CC(=O)O)NC(=O)[C@H](CC(N)=O)NC(=O)[C@H](CC(=O)O)NC(=O)[C@@H]2CCCN2C1=O [compound 396] (H-DCLGFMRKCIPDNDKCCRPNLVCSRTHKWCKYTF-NH2; disulfide 2-17, 9-23, 16-30)	20	40	3780
CC[C@H](C)[C@@H]1NC(=O)[C@@H]2CSSC[C@@H]3NC(=O)[C@H](C(C)C)NC(=O)[C@H](CC(C)C)NC(=O)[C@H](CC(N)=O)NC(=O)[C@@H]4CCCN4C(=O)[C@H](CCCNC(=N)N)NC(=O)[C@H](CSSC[C@H](NC(=O)[C@@H](N)CC(=O)O)C(=O)N[C@@H](CC(C)C)C(=O)NCC(=O)N[C@@H](Cc4ccccc4)C(=O)N[C@@H](CCSC)C(=O)N[C@@H](CCCNC(=N)N)C(=O)N[C@@H](CCCCN)C(=O)N2)NC(=O)[C@H](CSSC[C@@H](C(=O)N[C@@H](CCCCN)C(=O)N[C@@H](Cc2ccc(O)cc2)C(=O)N[C@@H](CO)C(=O)N[C@@H](Cc2ccccc2)C(N)=O)NC(=O)[C@H](Cc2c[nH]c4ccccc24)NC(=O)[C@H](CCCCN)NC(=O)[C@H](Cc2c[nH]cn2)NC(=O)[C@H]([C@@H](C)O)NC(=O)[C@H](CCCNC(=N)N)NC(=O)[C@H](CO)NC3=O)NC(=O)[C@H](CCCCN)NC(=O)[C@H](CC(=O)O)NC(=O)[C@H](CC(N)=O)NC(=O)[C@H](CC(=O)O)NC(=O)[C@@H]2CCCN2C1=O [compound 397] (H-DCLGFMRKCIPDNDKCCRPNLVCSRTHKWCKYSF-NH2; disulfide 2-17, 9-23, 16-30)	40	60	6280

— patent US9340590B2 (priority 2011, dated 2016)
